According to US20220202810A1 (Lake O'Hara LLC, priority 2020, published 2022):
Read-outs that look alike come from different tables or passages of the source.

Columns and labels:
[1] = PBPK modeling of schizophrenia patients, FDA label and modified dosing regimens; parameters: species or system human; conditions: for Days Reduced to Reach Pharmacokinetic Endpoints: EC50 / Days Reduced to Reach Pharmacokinetic Endpoints: EC80 / Days Reduced to Reach Pharmacokinetic Endpoints: Steady State: modified regimen of Table F vs FDA label, Obese
Source text: PBPK Modeling of Patients Dosed with Brexpiprazole According to the FDA Label
Although the PBPK modeling was based on the dosing regimen for schizophrenia according to the FDA label (REXULTI®, 3/2020), pharmacokinetic parameters are dose-dependent and expected to be similar in MDD.
In order to simulate brexpiprazole under various conditions, a whole-body PBPK model was constructed to capture the drug's kinetics in major tissues. Model tissue compartments included adipose, bone, brain, large intestine, small intestine, heart, kidney, liver, lung, muscle, spleen, stomach, and skin tissues, as well as venous and arterial blood compartments. In order to accurately capture first-pass clearance effects on the drug, the model also included correct representation of the gastrointestinal tract organs and the liver. […] Drug distribution into each tissue compartment was modeled assuming perfusion-limited kinetics, with partitioning into tissue described by a partition coefficient (Kp) estimated using methods described by Poulin and Theil (2002). Brexpiprazole-specific biochemical parameters such as the log of octanol:water partition coefficient (logP), negative log acid dissociation constant (pKa), fraction unbound in the plasma (fup), blood:plasma concentration ratio (BP), and clearance were obtained from literature; additional physiochemical properties used to calculate Kps were obtained via DrugBank. […] Simulations were carried out in a virtual population of 500 normal-weight and 500 obese individuals with age- and sex-specific physiological parameters (i.e. tissue flows and volumes) sampled from the National Health and Nutrition Examination Survey (NHANES) dataset.
PBPK Modeling of Schizophrenia Patients Treated with Higher Doses According to Modified Methods
A modified dosing regimen was developed so that obese and CYP2D6 PM patients reach therapeutic levels earlier (Table F). […] On day 8, patients returned to administering the recommended dose once daily. […] On day 15, patients returned to administering the recommended dose once daily.

[2] = brexpiprazole patients; cited from earlier work
[3] = cited from earlier work
[4] = cited from earlier work; remark: listed apart in the source

## O=c1ccc2ccc(OCCCCN3CCN(c4cccc5sccc45)CC3)cc2[nH]1 [Brexpiprazole, 7-{4-[4-(1-Benzothiophen-4-yl)piperazin-1-yl]butoxy}quinolin-2(1H)-one]
[1]; EM
  Days Reduced to Reach Pharmacokinetic Endpoints: EC50: 3 days
  Days Reduced to Reach Pharmacokinetic Endpoints: EC80: 3 days
  Days Reduced to Reach Pharmacokinetic Endpoints: Steady State: -4 days
[1]; PM
  Days Reduced to Reach Pharmacokinetic Endpoints: EC50: 2 days
  Days Reduced to Reach Pharmacokinetic Endpoints: EC80: 5 days
  Days Reduced to Reach Pharmacokinetic Endpoints: Steady State: -29 days
[1]; schizophrenia, normal-weight CYP2D6 PM, Modified Dosing Regimen 3
  time to reach therapeutic concentrations vs once daily dosing: three days faster
[1]; schizophrenia, obese CYP2D6 EM, twice the starting and recommended daily doses for the first 7 days
  time to reach therapeutic concentrations vs FDA label dosing: three days faster
[1]; schizophrenia, obese CYP2D6 PM, twice the starting and recommended daily doses for the first 14 days
  time to reach therapeutic concentrations vs once daily dosing: five days faster
[2]
  akathisia rates: dose-dependent
[3]; CYP2D6 PM
  decrease of baseline clearance by CYP2D6 PM status: ~30%
[3]; based on the literature
  brexpiprazole clearance due to CYP3A4: 46.7%
  clearance due to other routes: 10%
  remaining clearance due to CYP2D6: 43.3%
[3]; previous studies, no patients with BMI>35 kg/m^2
  effect of weight on the pharmacokinetics of brexpiprazole: less than 20%
[3]; share of brexpiprazole clearance
  renal clearance: ~1%
[4]; NDA Study1, IV, 0.25 mg
  AUC Observed: 172 ng·h/mL
  Cmax Observed: 4.73 ng/mL
  Tmax Observed: 1 h
[4]; NDA Study1, PO, 0.2 mg
  AUC Observed: 123 ng·h/mL
  Cmax Observed: 2.62 ng/mL
  Tmax Observed: 2 h
[4]; NDA Study1, PO, 0.5 mg
  AUC Observed: 287 ng·h/mL
  Cmax Observed: 6.64 ng/mL
  Tmax Observed: 4 h
[4]; NDA Study1, PO, 1 mg
  AUC Observed: 636 ng·h/mL
  Cmax Observed: 11.70 ng/mL
  Tmax Observed: 6 h
[4]; NDA Study1, PO, 2 mg
  AUC Observed: 1690 ng·h/mL
  Cmax Observed: 22.10 ng/mL
  Tmax Observed: 6 h
[4]; NDA Study2, PO, 2 mg
  AUC Observed: 2160 ng·h/mL
  Cmax Observed: 24.60 ng/mL
  Tmax Observed: 4 h
[4]; NDA Study2, PO, 4 mg
  AUC Observed: 2760 ng·h/mL
  Cmax Observed: 47.20 ng/mL
  Tmax Observed: 6 h
[4]; NDA Study2, PO, 6 mg
  AUC Observed: 5230 ng·h/mL
  Cmax Observed: 71.10 ng/mL
  Tmax Observed: 6 h
[4]; NDA Study2, PO, 8 mg
  AUC Observed: 7920 ng·h/mL
  Cmax Observed: 79.20 ng/mL
  Tmax Observed: 6 h
